# Reference: ChEMBL document CHEMBL1142218, “Synthesis, anti-HIV activity, and resistance profiles of ribose modified nucleoside phosphonates” (Bioorg Med Chem Lett, 2007)
# Key:
# [1] = test system: Human immunodeficiency virus; assay: Antiviral activity against wild type HIV; type: functional, organism-based; conditions: Human immunodeficiency virus 1
# [2] = Cytotoxicity against human MT2 cells; type: cell-based
# [3] = Inhibition of wild type HIV reverse transcriptase; parameters: species or system Human immunodeficiency virus
# [4] = test system: Human immunodeficiency virus; assay: Antiviral activity against HIV with reverse transcriptase K65R mutation in MT-2 cells assessed as fold resistance relative to wild type
# [5] = test system: Human immunodeficiency virus; assay: Antiviral activity against HIV with reverse transcriptase M184V mutation in MT-2 cells assessed as fold resistance relative to wild type
# [6] = test system: Human immunodeficiency virus; assay: Antiviral activity against HIV with reverse transcriptase 6TAMs mutation in MT-2 cells assessed as fold resistance relative to wild type
Compound,EC50 [1] [µM],CC50 [2] [µM],IC50 [3] [µM],Activity [4],Activity [5],Activity [6]
Nc1ncnc2c1ncn2[C@H]1CO[C@@H](OCP(=O)(O)O)C1,9.5,863,0.32,2.2,11,3.2
Cc1cn([C@H]2CC[C@@H](OCP(=O)(O)O)O2)c(=O)[nH]c1=O,> 200,–,5.4,–,–,–
O=c1ccn([C@H]2CC[C@@H](OCP(=O)(O)O)O2)c(=O)[nH]1,> 200,–,–,–,–,–
Nc1ncnc2c1ncn2[C@H]1CC[C@@H](OCP(=O)(O)OP(=O)(O)OP(=O)(O)O)O1,–,–,0.26,–,–,–
O=c1[nH]c(=O)n([C@H]2C=C[C@@H](OCP(=O)(O)O)O2)cc1F,> 200,–,–,–,–,–
"Nc1nc(NC2CC2)c2ncn([C@H]3C=C[C@@H](CO)C3)c2n1 (single isomer, unassigned) [ABACAVIR]",0.32,190,0.13,3.8,7.1,5.7
O=c1[nH]c(=O)n([C@H]2C=C[C@@H](OCP(=O)(O)O)O2)cc1Br,15,935,–,7.5,1.3,>10
Nc1ncnc2c1ncn2[C@H]1C=C[C@@H](OCP(=O)(O)OP(=O)(O)OP(=O)(O)O)O1,–,–,0.14,–,–,–
O=c1ccn([C@H]2C=C[C@@H](OCP(=O)(O)OP(=O)(O)OP(=O)(O)O)O2)c(=O)[nH]1,–,–,0.55,–,–,–
C[C@H](Cn1cnc2c(N)ncnc21)OCP(=O)(O)O [TENOFOVIR ANHYDROUS],3.6,> 1000,0.38,4.3,0.7,8.8
Nc1ncnc2c1ncn2[C@H]1CC[C@@H](OCP(=O)(O)O)O1,12,> 1000,4.1,4.9,1.1,3.4
Cc1cn([C@H]2C=C[C@@H](OCP(=O)(O)O)O2)c(=O)[nH]c1=O,26,> 1000,0.39,5.2,1.1,12.7
Nc1ncnc2c1ncn2[C@H]1C=C[C@@H](OCP(=O)(O)O)O1,2.1,> 1000,0.6,2.9,0.9,2.9
Nc1ncnc2c1ncn2[C@H]1C=C[C@@H](OCP(=O)(O)O)C1,51.7,–,–,–,–,–
Nc1ccn([C@H]2C=C[C@@H](OCP(=O)(O)O)O2)c(=O)n1,> 200,–,–,–,–,–
O=c1ccn([C@H]2C=C[C@@H](OCP(=O)(O)O)O2)c(=O)[nH]1,> 200,> 1000,5.7,–,–,–
Cc1cn([C@H]2C=C[C@@H](OCP(=O)(O)OP(=O)(O)OP(=O)(O)O)O2)c(=O)[nH]c1=O,–,–,0.06,–,–,–
O=c1[nH]c(=O)n([C@H]2C=C[C@@H](OCP(=O)(O)O)O2)cc1Cl,28.5,413,–,6.7,0.8,>10
